Values of other authors as cited in patent US9915714B2, “MSC-SELMQC method for simultaneous mapping of polyunsaturated fatty acids, lactate and choline in high fat tissues” (University of Pittsburgh—Of the Commonwealth System of …, priority 2007, dated 2018).

Tested on: RIF-1 tumors
Conditions: following therapeutic intervention, 300 mg/kg; correlates with increases in tumor perfusion and permeability (Gd-DTPA uptake curves)

O=P1(N(CCCl)CCCl)NCCCO1 (stereo not shown) [cyclophosphamide]
lactate levels in RIF-1 tumors: decrease
